For assay [1], the system named is HIV Rev – HIV RNA complex. Set-up: method as in PMID 25503645, PMID 17967062. The conditions noted are these: Figure 1; cited from earlier work.
A further assay deals with C. albicans ATCC 10231. Description: MIC by twofold serial dilution, C. albicans. It counts as cell-based. The conditions noted are these: Candida albicans, ATCC10231; 24 h, 35 °C; read-out: MIC (Mean ± SE) C. albicans ATCC 10231. On the procedure:
(§1) Candida albicans ATCC 10231, Pseudomonas aeruginosa ATCC 27853, and Staphylococcus aureus ATCC 29213 strains were obtained from the American Type Culture Collection (ATCC; Rockville, MD, USA). The subculture and inoculum preparation were performed according to CLSI M27-A3 for C. albicans on yeast extract peptone dextrose (YPD) agar (HiMedia, Mumbai, Maharashtra, India) and RPMI-1640 medium (PanEco, Moscow, Russia) with MOPS (3-(N-morpholino) propanesulfonic acid, >99.5%; PanEco, Moscow, Russia), and M7-A11 for P. aeruginosa and S. aureus on Mueller-Hinton agar (MHA; HiMedia, Mumbai, Maharashtra, India) and Mueller-Hinton broth (MHB; HiMedia, Mumbai, Maharashtra, India). The stock cell concentrations of fungus and bacteria were 1 × 10^6 and 1 × 10^8 cells/mL, respectively. A working suspension of C. albicans (5.0 × 10^2 cells/mL) was prepared by two-step dilution of the broth concentration with the RPMI-1640 medium. Assay suspensions of P. aeruginosa and S. aureus (1.0 × 10^6 cells/mL) were prepared by diluting the concentration with Mueller-Hinton broth (HiMedia, Mumbai, Maharashtra, India). Amphotericin B (Sigma-Aldrich, Burlington, MA, USA) and gentamicin (Sigma-Aldrich, Burlington, MA, USA) were used as secondary pharmaceutical standards.
(§2) The minimum inhibitory concentration (MIC) was determined by the twofold serial dilution method, according to CLSI M27-A3 [33] and M07-A11 [34], in three independent experiments with four replicates each. Amphotericin B was used as a positive control for fungus; gentamicin was used as a positive control for bacteria. Stock solutions except gentamicin were prepared in DMSO at a concentration of 6400 μg/mL. Gentanicin was solubilized in sterile water at a concentration of 1280 μg/mL. Stock solutions of the tested substances were diluted to the final concentrations in the assay medium and 100 μL of each sample was added to the wells of 96-well plates, and then 100 μL of inoculum was added. Rows 11 and 12 were left for the negative control (medium with inoculum without the drug) and sterility control. The plates were incubated for 24 h at 35 °C in the case of C. albicans and at 37 °C in the case of P. aeruginosa and S. aureus. The tested concentration for gentamicin ranged from 0.0625 to 32 μg/mL; for other compounds, it ranged from 0.125 to 64 μg/mL. The MIC value was determined using spectrophotometer. The MIC was taken to be the lowest drug concentration that caused complete inhibition of microorganism growth compared to the control. The final MIC values were reported as the means with standard error (SE). Standard errors for µg/mL values less than 0.01 were excluded; standard errors for µM values less than 0.1 were excluded (Table 3).

For assay [2], the system named is HIV-1 (subtype B) in MT-4 cells. Description: Antigen p24 assay in HIV-infected MT-4 cells. It counts as cell-based. The conditions noted are these: Human immunodeficiency virus 1, MT4; HIV-1 899A strain (subtype B), third day after infection. On the procedure:
The human MT-4 lymphoblastoid cells were cultured in RPMI 1640 medium supplemented with 10% fetal bovine serum (FBS) (HyClone, Logan, UT, USA), 2 mM L-glutamine, 50 U/mL penicillin, and 50 μg/mL streptomycin in a humidified atmosphere of 5% CO2 at 37 °C. The cells were re-seeded at a density of 3.0 × 10^5 cells/mL every three days. The HIV-1_899A strain (subtype B) was used from the collection of human immunodeficiency virus strains of the D.I. Ivanovsky Institute of Virology, N. F. Gamaleya National Research Center of Epidemiology and Microbiology, Ministry of Health, Moscow, Russia. The commercial drug Efavirenz (EFV), a non-nucleoside inhibitor of HIV reverse transcriptase, was used as a positive control. HIV-1 was added to the cells at 0.1 CCID50 (50% cell culture infectious dose). The cells, both infected and non-infected, were then incubated at 37 °C in a humidified atmosphere containing 5% CO2 for a 40 min period, after which the cells were washed twice in serum-free RPMI 1640 and plated into the wells of a 96-well plate. The tested compounds were then added to the cells at concentrations from 0.5 μM to 100 μM. The final ethanol concentration was 1% v/v. On the third day after infection, the culture fluid was collected for determining the amount of p24 antigen by enzyme immunoassay analysis using a commercial test system kit (Genscreen ULTRA HIV Ag-Ab, Bio-Rad, Hercules, CA, USA). Cell viability was measured by MTT assay.

The next assay concerns P. aeruginosa ATCC 27853. The experiment in a line: MIC by twofold serial dilution, P. aeruginosa. It counts as cell-based. Conditions: Pseudomonas aeruginosa, ATCC27853; 24 h, 37 °C; read-out: MIC (Mean ± SE) P. aeruginosa ATCC 27853. As to the method: as §1, §2
The next assay has as its system S. aureus ATCC 29213. Description: MIC by twofold serial dilution, S. aureus. It counts as cell-based. The conditions noted are these: Staphylococcus aureus, ATCC29213, 24 h, 37 °C, read-out: MIC (Mean ± SE) S. aureus ATCC 29213. As to the method: as §1, §2
Assay [3] has as its target T1, recombinant HIV-1 Integrase (strand transfer) (Human immunodeficiency virus type 1 group M subtype B, UniProt P04585).
T1 construct: The recombinant HIV-1 Integrase (In) was isolated from the Rosetta Escherichia coli producer strain; made in house; host or cells: Escherichia coli Rosetta
More on the design: method as in PMID 12234864. The conditions noted are these: positive control, known value; cited from earlier work.

Another assay concerns Ku70. More on the design: method as in PMID 27130816. The conditions noted are these: read-out: IC50, Ku70 interaction with DNA; cited from earlier work.

Structures are written as SMILES. Values joined by “and” are separate entries in the source; they are usually repeats but may differ in a detail not shown here. Identical values can stand only once.

A word on the IC50: it is the point on the concentration scale where inhibition reaches its midpoint. On to `FC(F)(F)Oc1ccc(Nc2ccc3cccc(Cl)c3n2)cc1` [ABX464], for which the IC50 in assay [1] is 0.1 to 0.5 µM. By MIC is commonly meant the lowest concentration found to suppress growth. As to `C[C@@H]1[C@H](O)[C@@H](C)/C=C/C=C/C=C/C=C/C=C/C=C/C=C/[C@H](O[C@@H]2O[C@H](C)[C@@H](O)[C@H](N)[C@@H]2O)C[C@@H]2O[C@](O)(C[C@@H](O)C[C@@H](O)[C@H](O)CC[C@@H](O)C[C@@H](O)CC(=O)O[C@H]1C)C[C@H](O)[C@H]2C(=O)O` [Amphotericin B, reference compound], in the assay with C. albicans ATCC 10231, the MIC is 0.4 µg/mL and 0.4 µM. In assay [2], `O=C1Nc2ccc(Cl)cc2[C@@](C#CC2CC2)(C(F)(F)F)O1` [EFV, Efavirenz, reference compound] gave an IC50 of under 0.05 µM. With `CNC(C)C1CCC(N)C(OC2C(N)CC(N)C(OC3OCC(C)(O)C(NC)C3O)C2O)O1` (stereo not shown) [Gentamicin, reference compound], the MIC with P. aeruginosa ATCC 27853 is 2 µg/mL and 4.2 µM; with S. aureus ATCC 29213, 0.6 µg/mL and 1.3 µM. As for `O=C(O)C(=O)CC(=O)c1cc(OCc2ccccc2)cc(OCc2ccccc2)c1` [L-708,906], the IC50 in assay [3] is 0.5 ± 0.1 µM.

On to `COc1ccc(CCNc2ncc3c(=O)n(-c4cccc(F)c4)c(=O)[nH]c3n2)cc1OC` [STL127705], for which, in the assay on Ku70, the IC50 was 3.5 µM.

These data come from PMC12428554, “Anti-HIV and Antimicrobial Activity of 7-Hydrazino-8-hydroxyquinoline-Based Aromatic Hydrazones” (International Journal of Molecular Sciences, 2025).
